Inconclusive results and toxic doses are left out.
Test system: L1210 leukemia ip in BDF1 mice, survival T/C
Test: NCI In Vivo Anticancer Drug Screen. Data for tumor model L1210 Leukemia (intraperitoneal) in B6D2F1 (BDF1) mice
Details: endpoint: mean survival time, higher = longer survival
In short: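 Antitumor effect is assessed in tumor-bearing animals. Survival in the compound arm is compared with a vehicle-dosed control arm and expressed as their quotient.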

[1] = dose: 100.0 mg/kg/injection, schedule: Q01DX001 (ip), vehicle: saline
[2] = dose: 100.0 mg/kg/injection, schedule: Q01DX009 (ip), vehicle: saline with Tween-80
[3] = dose: 200.0 mg/kg/injection, schedule: Q01DX009 (ip), vehicle: saline with Tween-80

ClC12CCC(Cl)(CC1)CC2
T/C (dose: 75.0 mg/kg/injection, schedule: Q01DX001 (ip), vehicle: acetone): 103 % of control

O=C(NCCO)Nc1ccccc1F
T/C (dose: 100.0 mg/kg/injection, schedule: Q01DX009 (ip), vehicle: saline): 95 % of control
T/C (dose: 100.0 mg/kg/injection, schedule: Q04DX003 (ip), vehicle: saline): 95 % of control
T/C (dose: 200.0 mg/kg/injection, schedule: Q01DX009 (ip), vehicle: saline): 101 % of control
T/C (dose: 200.0 mg/kg/injection, schedule: Q04DX003 (ip), vehicle: saline): 95 % of control
T/C (dose: 400.0 mg/kg/injection, schedule: Q01DX009 (ip), vehicle: saline): 106 % of control
T/C (dose: 400.0 mg/kg/injection, schedule: Q04DX003 (ip), vehicle: saline): 93 % of control

[O-][n+]1ccccc1CCl
T/C (dose: 50.0 mg/kg/injection, schedule: Q01DX001 (ip), vehicle: saline): 98 % of control
T/C [1]: 100 % of control

Cn1cnc([N+](=O)[O-])c1[Se]c1nc(N)nc2nc[nH]c12
T/C (dose: 25.0 mg/kg/injection, schedule: Q01DX005 (ip), vehicle: other): 159 % of control
T/C (dose: 50.0 mg/kg/injection, schedule: Q01DX005 (ip), vehicle: other): 92 % of control

Nc1c(Cl)c(Cl)c2c(c1Cl)C(O)c1cc(Cl)ccc1-2 (configuration not stated)
T/C (dose: 100.0 mg/kg/injection, schedule: Q01DX001 (ip), vehicle: carboxymethylcellulose (CMC)): 89 % of control
T/C (dose: 200.0 mg/kg/injection, schedule: Q01DX001 (ip), vehicle: carboxymethylcellulose (CMC)): 95 % of control
T/C (dose: 400.0 mg/kg/injection, schedule: Q01DX001 (ip), vehicle: carboxymethylcellulose (CMC)): 93 % of control

O=C(Nc1nccs1)Nc1ccccc1C(F)(F)F
T/C [2]: 100 % of control
T/C [3]: 106 % of control
T/C (dose: 400.0 mg/kg/injection, schedule: Q01DX009 (ip), vehicle: saline with Tween-80): 92 % of control

C=CCC/C(=C/C(=O)OCC)OCC=C
T/C (dose: 50.0 mg/kg/injection, schedule: Q01DX009 (ip), vehicle: saline with Tween-80): 107 % of control
T/C [2]: 114 % of control

CCC(=O)Nc1cccc(Cl)c1
T/C [2]: 97 % of control
T/C (dose: 100.0 mg/kg/injection, schedule: Q04DX003 (ip), vehicle: Klucel (hydroxypropylcellulose) (HPC)): 97 % of control
T/C [3]: 103 % of control
T/C (dose: 200.0 mg/kg/injection, schedule: Q04DX003 (ip), vehicle: Klucel (hydroxypropylcellulose) (HPC)): 97 % of control
T/C (dose: 400.0 mg/kg/injection, schedule: Q04DX003 (ip), vehicle: Klucel (hydroxypropylcellulose) (HPC)): 108 % of control

O=C(Nc1cccc(S(=O)(=O)F)c1)c1ccc([N+](=O)[O-])cc1
T/C [1]: 107 % of control
T/C (dose: 200.0 mg/kg/injection, schedule: Q01DX001 (ip), vehicle: saline): 103 % of control
T/C (dose: 400.0 mg/kg/injection, schedule: Q01DX001 (ip), vehicle: saline): 90 % of control

— PubChem BioAssay AID248 (DTP/NCI, 2004)
